According to patent US12522855B2, “Methods and kits for identifying thrombus origin and optimizing post-ischemic event treatment” (TEL HASHOMER MEDICAL RESEARCH INFRASTRUCTURE AND SERVICES …, priority 2019, dated 2026):

Target: thrombin (Homo sapiens, UniProt P00734)
Settings: 1 μM final concentration, added to selected reaction wells; 15 clots from randomized sources
Experimental: Thrombin activity was measured as previously described by Beilin et al., (2001, Neuroreport: doi:10.1097/00001756-200108080-00013) in 10 L triplicates of clot-free buffer in a black Nunc 96 wells microplate by a fluorometric assay quantifying the cleavage of the synthetic peptide thrombin substrate Boc-Asp(OBzl)-Pro-Arg-AMC (I-1560, Bachem, Switzerland, 13 μM final concentration). Measurements were performed by the Infinite 2000 microplate reader (Tecan, infinite 200, Switzerland) with excitation and emission filters of 360±35 and 460±35 nm, respectively. For calibration, known concentrations of bovine thrombin (Sigma-Aldrich, Israel) were used in the same assay.

Substance: NAPAP
- effect on thrombin activity profile (specificity check of the fluorescent signal): high and consistent abolition of thrombin activity profile
